From patent US20020143047A1, “Methods for treating indomethacin responsive headaches” (priority 2001, published 2002)

System: patient suffering from hemicrania continua and ulceritive colitis
Experiment: Clinical treatment of a patient with hemicrania continua: topical indomethacin patch, and prior oral indomethacin
Assay type: in vivo, human
Method: Typically, the symptom ameliorated by the subject methods is pain associated with the syndrome being treated. In many embodiments, the intensity of pain associated with the syndrome is at least reduced, if not eliminated. Reduction in pain intensity is evaluated according to the protocol described at pages 161-176, and particularly page 172, of “Guidelines for Controlled Trials of Drugs in Cluster Headache,” published by the International Headache Society Committee on Clinical Trials in Cluster Headache. The magnitude of reduction in pain intensity is generally at least about 10%, usually at least about 25% and more usually at least about 50%, where magnitude of reduction may be as high as 75%, 80%, 95% or higher, including a complete cessation of pain, as determined by the assay described above.
The topical formulation described in I, above, was employed to treat a patient suffering from hemicrania continua and ulceritive colitis. The patient suffered from a six-year history of constant right-sided hemicranial pain of mild to moderate severity. Superimposed exacerbations of more intense pain occurred twice weekly and would last up to twelve hours. These painful exacerbations were associated with ipsilateral ptosis, conjunctival injection and lacrimation.
The patient was then treated with the topical application of indomethacin described in I, above, by applying the topical application to the site of maximal pain, i.e. the right forehead and temple. […] The patient was then instructed to reapply the patch twice daily, at twelve hour intervals. […] This was a favorable result compared with other forms of treatment that the patient had previously employed, whereas despite appropriate therapy, the patient's other medical condition worsened in response to oral administration of indomethacin.

[1] = prior treatment, 25 mg, three times daily

In the case of `COc1ccc2c(c1)c(CC(=O)O)c(C)n2C(=O)c1ccc(Cl)cc1` [indomethacin, Indomethacin], the “effect on gastrointestinal symptoms” value (decreased dosage) is reported as “continued to aggravate the gastrointestinal symptoms”, the “effect on headache syndrome” value (decreased dosage) is reported as “did not abolish the headache syndrome” and the effect on pain [1] is reported as “complete resolution of pain”. The “effect on patient's ulcerative colitis” value [1] was “significant worsening”.
